In the assay the target is T1, rAaBGL1 (Aspergillus aculeatus β-glucosidase 1) (Aspergillus aculeatus, UniProt P48825).
T1 construct: full AaBGL1 gene amplified from A. aculeatus genomic DNA, own signal peptide, no tag mentioned; expressed in Aspergillus oryzae niaD300, released from cell surface
T1 sequence (P48825 20-860): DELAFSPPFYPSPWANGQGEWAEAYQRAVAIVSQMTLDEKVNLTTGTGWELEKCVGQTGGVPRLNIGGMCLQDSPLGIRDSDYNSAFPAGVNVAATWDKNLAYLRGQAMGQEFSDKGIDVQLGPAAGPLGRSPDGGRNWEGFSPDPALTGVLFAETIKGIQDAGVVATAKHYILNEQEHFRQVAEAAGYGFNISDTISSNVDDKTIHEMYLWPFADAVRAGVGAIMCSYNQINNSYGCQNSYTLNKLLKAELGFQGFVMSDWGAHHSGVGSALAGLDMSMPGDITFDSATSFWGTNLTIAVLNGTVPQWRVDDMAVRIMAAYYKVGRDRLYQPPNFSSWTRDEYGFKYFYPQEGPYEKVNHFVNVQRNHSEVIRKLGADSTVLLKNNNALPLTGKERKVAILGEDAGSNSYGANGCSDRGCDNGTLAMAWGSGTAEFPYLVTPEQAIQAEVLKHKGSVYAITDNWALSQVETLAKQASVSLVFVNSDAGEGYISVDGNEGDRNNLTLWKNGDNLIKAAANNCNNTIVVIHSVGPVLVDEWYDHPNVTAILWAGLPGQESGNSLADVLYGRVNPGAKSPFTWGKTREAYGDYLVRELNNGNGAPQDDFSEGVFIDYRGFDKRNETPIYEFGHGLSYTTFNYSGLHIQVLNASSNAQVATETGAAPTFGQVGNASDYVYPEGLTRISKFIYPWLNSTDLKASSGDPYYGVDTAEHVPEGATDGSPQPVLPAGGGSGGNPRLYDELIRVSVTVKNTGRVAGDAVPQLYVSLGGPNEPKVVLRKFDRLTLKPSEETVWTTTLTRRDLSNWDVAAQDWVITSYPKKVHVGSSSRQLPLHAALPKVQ
Nature of the assay: pNP-Glc hydrolysis, absorbance […] nm, Dixon plot. The note with it: 0.1-0.4 mM pNP-Glc, 20 mM sodium acetate pH 5.0, 37°C; competitive. It is filed as biochemical.

This passage reports Ki results from PMC4305095, “Characterization of Aspergillus aculeatus β-glucosidase 1 accelerating cellulose hydrolysis with Trichoderma cellulase system” (AMB Express, 2015).

`OC[C@H]1OC(O)[C@H](O)[C@@H](O)[C@@H]1O` (stereo partly shown) [glucose]: the Ki (usually a measure of affinity in units of concentration, obtained from inhibition or displacement) came out at 9.99 ± 0.94 mM.
